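Following 48 hours of exposure in 96-well plates, responses at five concentrations were used to interpolate endpoints linearly. GI50 marks 50% less growth.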 Calls of active or inactive are those of the source. No stated cut-off is given here; in the data, active = GI50 up to about 1.1 µM and inactive = higher. Where a SMILES comes first, the peptide text is derived from it. [ ]: non-standard residue; d: D form. The star is where a group is joined. Cbz = O=C(OCc1ccccc1)*; Aib = CC(C)(N)C(=O)O; OBn = c1ccc(CO*)cc1
Tests used:
Assay in all cases: NCI-60 cell line screen, 48 h
CCRF-CEM = test system: CCRF-CEM
MDA-MB-231 = test system: MDA-MB-231
SF-295 = test system: SF-295
Hs-578T = test system: Hs-578T
NCI-H460 = test system: NCI-H460
SN12C = test system: SN12C
UO-31 = test system: UO-31
U-251 = test system: U-251
EKVX = test system: EKVX
NCI-H522 = test system: NCI-H522
SF-539 = test system: SF-539
HCC 2998 = test system: HCC 2998
A498 = test system: A498
HCT-116 = test system: HCT-116
UACC-257 = test system: UACC-257
SNB-75 = test system: SNB-75
RPMI-8226 = test system: RPMI-8226
MCF7 = test system: MCF7
TK-10 = test system: TK-10

SMILES	GI50 (CCRF-CEM)	GI50 (MDA-MB-231)	GI50 (SF-295)	GI50 (Hs-578T)	GI50 (NCI-H460)	GI50 (SN12C)	GI50 (UO-31)	GI50 (U-251)	GI50 (EKVX)	GI50 (NCI-H522)	GI50 (SF-539)	GI50 (HCC 2998)	GI50 (A498)	GI50 (HCT-116)	GI50 (UACC-257)	GI50 (SNB-75)	GI50 (RPMI-8226)	GI50 (MCF7)	GI50 (TK-10)
Cc1ccc2nc(-c3ccc(N)c(Br)c3)sc2c1	3.37 µM (inactive)	25.3 µM (inactive)	34.8 µM (inactive)	14.2 µM (inactive)	5.6 µM (inactive)	> 100 µM (inactive)	5.27 µM (inactive)	37.5 µM (inactive)	15.2 µM (inactive)	0.875 µM (active)	33.1 µM (inactive)	2.64 µM (inactive)	> 100 µM (inactive)	31.4 µM (inactive)	20 µM (inactive)				
N=c1oc2ccc(Cl)cc2cc1C(N)=O	40.6 µM (inactive)	24.4 µM (inactive)		18.5 µM (inactive)	30.8 µM (inactive)	18.8 µM (inactive)		40.4 µM (inactive)			31.3 µM (inactive)	25.7 µM (inactive)	32.7 µM (inactive)	21.2 µM (inactive)	45.4 µM (inactive)	26.1 µM (inactive)	66.4 µM (inactive)		
C=CCC1C(=O)Nc2cccc3ncn(c23)C1=O (configuration not stated)	> 100 µM (inactive)	> 100 µM (inactive)	> 100 µM (inactive)	> 100 µM (inactive)	> 100 µM (inactive)	> 100 µM (inactive)	> 100 µM (inactive)	> 100 µM (inactive)	> 100 µM (inactive)		> 100 µM (inactive)		> 100 µM (inactive)	> 100 µM (inactive)	> 100 µM (inactive)	> 100 µM (inactive)	> 100 µM (inactive)	> 100 µM (inactive)	
c1cncc(C(Nc2cccc3cccnc23)Nc2cccc3cccnc23)c1	66.1 µM (inactive)	> 100 µM (inactive)	> 100 µM (inactive)	> 100 µM (inactive)	> 100 µM (inactive)	> 100 µM (inactive)	83.8 µM (inactive)	> 100 µM (inactive)	69.7 µM (inactive)	28.8 µM (inactive)	> 100 µM (inactive)	> 100 µM (inactive)		> 100 µM (inactive)	> 100 µM (inactive)	37.8 µM (inactive)	55.8 µM (inactive)	> 100 µM (inactive)	> 100 µM (inactive)
c1ccc2c(c1)c1c(n2CCOCCN2CCCCC2)CCCC1	12.4 µM (inactive)	11.8 µM (inactive)	16.2 µM (inactive)	14.5 µM (inactive)	11.9 µM (inactive)	13.7 µM (inactive)	11.1 µM (inactive)	16.9 µM (inactive)	16.9 µM (inactive)		16.6 µM (inactive)	11.5 µM (inactive)		12.5 µM (inactive)	> 10 µM (inactive)	11.6 µM (inactive)	9.29 µM (inactive)	13.7 µM (inactive)	14.3 µM (inactive)
O=c1[nH]c(=O)n(C2CC(O)C(CO)O2)cc1OCCCc1ccccc1 (configuration not stated)	> 100 µM (inactive)	> 100 µM (inactive)	> 100 µM (inactive)	> 100 µM (inactive)	> 100 µM (inactive)	> 100 µM (inactive)	> 100 µM (inactive)	> 100 µM (inactive)	> 100 µM (inactive)	> 100 µM (inactive)				> 100 µM (inactive)	> 100 µM (inactive)	> 100 µM (inactive)	> 100 µM (inactive)	> 100 µM (inactive)	> 100 µM (inactive)
CN(C)C1(C(=O)O)CC1	> 100 µM (inactive)		> 100 µM (inactive)	> 100 µM (inactive)	> 100 µM (inactive)	> 100 µM (inactive)		> 100 µM (inactive)	> 100 µM (inactive)	> 100 µM (inactive)	> 100 µM (inactive)	> 100 µM (inactive)	> 100 µM (inactive)	> 100 µM (inactive)	> 100 µM (inactive)	> 100 µM (inactive)	> 100 µM (inactive)	> 100 µM (inactive)	> 100 µM (inactive)
CCN(CC)C1CCC(C2c3cc4c(cc3OC(N3CCOCC3)C2C)OCO4)CC1 (configuration not stated)	27.2 µM (inactive)		9.46 µM (inactive)	28.7 µM (inactive)	16.3 µM (inactive)	> 29.2 µM (inactive)	36.9 µM (inactive)	37.1 µM (inactive)	22.8 µM (inactive)	12.4 µM (inactive)	22.3 µM (inactive)	10 µM (inactive)	21 µM (inactive)	32.3 µM (inactive)	18.4 µM (inactive)	61.8 µM (inactive)	15.5 µM (inactive)	22.6 µM (inactive)	> 30.6 µM (inactive)
C=C1CN(C2=NCCO2)C1	> 100 µM (inactive)	> 100 µM (inactive)	> 100 µM (inactive)	> 100 µM (inactive)	> 100 µM (inactive)	> 100 µM (inactive)	> 100 µM (inactive)		> 100 µM (inactive)		> 100 µM (inactive)	> 100 µM (inactive)		> 100 µM (inactive)	> 100 µM (inactive)	> 100 µM (inactive)	> 100 µM (inactive)	> 100 µM (inactive)	> 100 µM (inactive)
O=C(NCCC(F)(F)C(F)(F)C(F)(F)C(F)(F)F)NC1OC(CO)C(O)C(O)C1O (configuration not stated)	> 100 µM (inactive)	> 100 µM (inactive)	> 100 µM (inactive)	> 100 µM (inactive)	> 100 µM (inactive)	> 100 µM (inactive)	> 100 µM (inactive)	> 100 µM (inactive)			> 100 µM (inactive)	> 100 µM (inactive)		> 100 µM (inactive)	> 100 µM (inactive)	> 100 µM (inactive)	> 100 µM (inactive)	> 100 µM (inactive)	> 100 µM (inactive)
N=C(N)NS(=O)(=O)c1ccc(NC(=O)c2ccc3nc4ccccc4c(N)c3c2)cc1	> 100 µM (inactive)	> 100 µM (inactive)	> 100 µM (inactive)	> 100 µM (inactive)	> 100 µM (inactive)	> 100 µM (inactive)	> 100 µM (inactive)	> 100 µM (inactive)	> 100 µM (inactive)	> 100 µM (inactive)	> 100 µM (inactive)	> 100 µM (inactive)		> 100 µM (inactive)	> 100 µM (inactive)	> 100 µM (inactive)	> 100 µM (inactive)	> 100 µM (inactive)	> 100 µM (inactive)
CCOC(=O)c1cc(=O)c2ccnc3c2n1CCS3	48.5 µM (inactive)	> 100 µM (inactive)	> 100 µM (inactive)	> 100 µM (inactive)	> 100 µM (inactive)	> 100 µM (inactive)	57.5 µM (inactive)	43.9 µM (inactive)	> 100 µM (inactive)	22.7 µM (inactive)	> 100 µM (inactive)		> 100 µM (inactive)	> 100 µM (inactive)	51.6 µM (inactive)	8.3 µM (inactive)		> 100 µM (inactive)	> 100 µM (inactive)
CNC(=O)c1ccccc1-[s+]1c2ccccc2c(=O)n1C (configuration not stated)	> 100 µM (inactive)	> 100 µM (inactive)	> 100 µM (inactive)	> 100 µM (inactive)		> 100 µM (inactive)	> 100 µM (inactive)	> 100 µM (inactive)	> 100 µM (inactive)	> 100 µM (inactive)	> 100 µM (inactive)		> 100 µM (inactive)	> 100 µM (inactive)	> 100 µM (inactive)		> 100 µM (inactive)	> 100 µM (inactive)	> 100 µM (inactive)
Cc1ccc(S(=O)(=O)c2c(O)c3ccccc3n(C)c2=O)cc1	> 100 µM (inactive)	> 100 µM (inactive)	> 100 µM (inactive)	> 100 µM (inactive)	> 100 µM (inactive)	> 100 µM (inactive)	> 100 µM (inactive)	> 100 µM (inactive)	> 100 µM (inactive)		> 100 µM (inactive)		> 100 µM (inactive)	> 100 µM (inactive)	> 100 µM (inactive)	> 100 µM (inactive)	> 100 µM (inactive)	> 100 µM (inactive)	
Cc1ccc2c(=O)c(-c3nnc(N)s3)c[nH]c2n1	> 100 µM (inactive)	> 100 µM (inactive)	> 100 µM (inactive)	> 100 µM (inactive)	> 100 µM (inactive)	> 100 µM (inactive)	> 100 µM (inactive)	67.1 µM (inactive)	> 100 µM (inactive)	> 100 µM (inactive)			> 100 µM (inactive)	> 100 µM (inactive)	> 100 µM (inactive)		> 100 µM (inactive)	> 100 µM (inactive)	> 100 µM (inactive)
Cn1ccc(C(=O)N2CCSC2=S)c(OCc2ccccc2)c1=O	48.8 µM (inactive)	> 100 µM (inactive)		> 100 µM (inactive)	> 100 µM (inactive)	> 100 µM (inactive)	67.8 µM (inactive)	> 100 µM (inactive)		39.2 µM (inactive)		> 100 µM (inactive)	> 100 µM (inactive)	> 100 µM (inactive)	> 100 µM (inactive)	70.1 µM (inactive)	> 100 µM (inactive)		> 100 µM (inactive)
CC(NC(=O)C(C)(C)NC(=O)C(CC(=O)OCc1ccccc1)NC(=O)OCc1ccccc1)C(N)=O (configuration not stated) (Cbz-Asp(OBn)-[Aib]-Ala-NH2; configuration not given here)	> 100 µM (inactive)	> 100 µM (inactive)	43 µM (inactive)	> 100 µM (inactive)	> 100 µM (inactive)	> 100 µM (inactive)	> 100 µM (inactive)	> 100 µM (inactive)	> 100 µM (inactive)	> 100 µM (inactive)	> 100 µM (inactive)	> 100 µM (inactive)		> 100 µM (inactive)	> 100 µM (inactive)		> 100 µM (inactive)	> 100 µM (inactive)	> 100 µM (inactive)

From ChEMBL document CHEMBL1201862, “PubChem BioAssay data set” (2004)
